Among the data in ChEMBL document CHEMBL5625222, “Design, synthesis, and biological evaluation of 1,6-naphthyridine-2-one derivatives as novel FGFR4 inhibitors for the treatment of colorectal cancer” (Eur J Med Chem, 2023) are IC50, Activity and inhibition in vivo values, retold here.

The source made the active and inactive calls. No cut-off for these calls is given here.

In one data set the test system is SW480. The data set can be described thus: cells. Conditions: Homo sapiens, SW480, 48 h.
In the next data set the test system is RKO. As to the kind of experiment: cells. Conditions: Homo sapiens, 48 h.
The nature of data set [1]: Antiproliferative activity against human Intestinal epithelial cell assessed as inhibition of cell growth incubated for 48 hrs by MTT assay. The conditions noted are these: human intestinal epithelial cells. It is filed as toxicity, cell-based. In general terms: Tetrazolium dyes change colour on reduction, which living cells bring about.
Data set [2] relates to HCT-116. The data set can be described thus: cells. The conditions noted are these: Homo sapiens, HCT-116, 48 h.
Description: Antiproliferative activity against human HCT-116 cells assessed as inhibition of cell growth incubated for 48 hrs by MTT assay
Another data set concerns BaF3. As to the kind of experiment: Antiproliferative activity against mouse BaF3 transfected with FGFR4 assessed as inhibition of cell growth incubated for 72 hrs by CCK-8 assay. Type of data set: toxicity, cell-based. The conditions noted are these: BaF3, 72 h.
Data set [3] is described as follows: Toxicity in BALB/c mouse xenografted with human HCT-116 cells assessed as histopathological change in kidney at 10 mg/kg,po administrated for 2 weeks by hematoxylin and eosin staining based analysis. It is filed as organism-based. The conditions noted are these: in vivo, 336 h. On the technique in general: In xenograft studies the graft and the host belong to different species.

Data set [4] is described as follows: Toxicity in BALB/c mouse xenografted with human HCT-116 cells assessed as increase in serum AST level at 10 mg/kg,po administrated for 2 weeks. It is filed as organism-based. Conditions: in vivo, 336 h.
For data set [5], the system named is HCT-116. The data set can be described thus: Antitumor activity against human HCT-116 cells xenografted in BALB/c mouse assessed as tumor growth inhibition at 10 mg/kg,po administrated for 2 weeks relative to control. It is filed as functional. Conditions: HCT-116, 336 h, read-out: TGI.
In data set [6] the test system is HCT-116. The data set can be described thus: Antitumor activity against human HCT-116 cells xenografted in BALB/c mouse assessed as chromatin condensation at 10 mg/kg,po administrated for 2 weeks by hematoxylin and eosin staining based analysis. Type of data set: functional, organism-based.
For data set [7], the system named is HCT-116. As to the kind of experiment: Antitumor activity against human HCT-116 cells xenografted in BALB/c mouse assessed as change in cell morphology at 10 mg/kg,po administrated for 2 weeks by hematoxylin and eosin staining based analysis. Type of data set: functional, organism-based.

Description for RKO: Antiproliferative activity against human RKO cells assessed as inhibition of cell growth incubated for 48 hrs by MTT assay
Description for SW480: Antiproliferative activity against human SW480 cells assessed as inhibition of cell growth incubated for 48 hrs by MTT assay

Consider `C=CC(=O)Nc1cccc(C)c1Nc1ncc2cc(-c3c(Cl)c(OC)cc(OC)c3Cl)ccc2n1`, for which the half-maximal inhibitory concentration (IC50) with SW480 was found to be 12.7 µM; in the data set with RKO it was 19.7 µM; with HCT-116 [2], 8.89 µM; with BaF3 it was 0.00512 µM. For the same compound, the IC50 at 48 h in [1] stood at 18.4 µM.
Turning to `C=CC(=O)NCCCn1c(=O)c(-c2cc(OC)cc(OC)c2)cc2cnc(Nc3c(C)cccc3N3CCN(C)CC3)cc21`, the figures for the IC50 in the data set with SW480, in the data set on RKO and in the data set with HCT-116 [2] were 12.7 µM, 11.5 µM and 10.8 µM, respectively. In data set [1], the IC50 at 48 h turned out to be 21.3 µM.
On the same counts, the results for `COc1cc(OC)c(Cl)c(-c2cc3cnc(Nc4c(C)cccc4N4CCCCC4)cc3n(CCCN3CCCCC3)c2=O)c1Cl` are 10.3 µM, 11.2 µM, 9.37 µM and 25.1 µM.
On the same counts, the results for `COc1cc(OC)cc(-c2cc3cnc(Nc4c(C)cccc4N4CCOCC4)cc3n(CCCO)c2=O)c1` are 22.8 µM, 9.25 µM, 11.9 µM and 19.5 µM.
Consider `CNC(=O)c1c(C)oc2cc(Oc3ncnc4cc(OC)c(OC)cc34)ccc12` [FRUQUINTINIB], for which the Activity result in data set [3] and in data set [4] was “Toxic” each time. For the same compound, the inhibition in vivo at 10 mg/kg in the data set on HCT-116 [5] is 63.7%. The result in the data set on HCT-116 [6] and with HCT-116 [7] was Active.
In the case of `C=CC(=O)Nc1cccc(C)c1Nc1cc2c(cn1)cc(-c1c(Cl)c(OC)cc(OC)c1Cl)c(=O)n2CCCO`, the concentration for half-maximal inhibition (IC50) with SW480 was 12.8 µM; in the data set with RKO, 9.32 µM; in the data set with HCT-116 [2] it was 7.21 µM. The IC50 at 48 h in [1] was 24 µM.

For orientation: IC50 means the concentration that gives 50% inhibition.
